{"source": "patent US20040157836A1", "about": "“Sulfonamides having antiangiogenic and anticancer activity” (priority 2002, published 2004)", "origin": "cited, not measured here", "biological_target": "type 2-methionine aminopeptidase (MetAP-2) (Homo sapiens, UniProt P50579)", "sequence (P50579 whole entry, species assumed)": "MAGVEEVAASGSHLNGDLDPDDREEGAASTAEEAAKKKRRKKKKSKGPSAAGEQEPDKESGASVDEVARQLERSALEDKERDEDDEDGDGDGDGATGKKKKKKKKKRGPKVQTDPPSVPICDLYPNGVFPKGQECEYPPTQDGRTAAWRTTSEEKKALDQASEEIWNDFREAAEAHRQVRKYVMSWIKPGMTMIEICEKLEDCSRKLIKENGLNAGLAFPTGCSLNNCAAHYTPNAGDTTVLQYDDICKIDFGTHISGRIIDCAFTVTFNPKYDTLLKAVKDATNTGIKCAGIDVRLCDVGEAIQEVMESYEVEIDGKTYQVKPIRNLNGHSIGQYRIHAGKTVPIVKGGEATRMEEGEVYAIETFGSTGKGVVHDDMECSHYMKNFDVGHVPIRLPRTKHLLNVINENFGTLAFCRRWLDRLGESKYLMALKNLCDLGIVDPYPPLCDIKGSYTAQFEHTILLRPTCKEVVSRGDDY", "details": "reported in Proc. Natl. Acad. Sci. USA 94: 6099-6103 (1997) and Chemistry and Biology, 4(6): 461-471 (1997)", "data": [{"compound": "CO[C@@H]1[C@H](OC(=O)NC(=O)CCl)CC[C@]2(CO2)[C@H]1[C@@]1(C)O[C@@H]1CC=C(C)C", "note": "[AGM-1470]", "values": [{"measurement": "bind to type 2-methionine aminopeptidase (MetAP-2)", "result": "bind"}]}]}
